In patent publication US5702883A, “Methods for detection of mutagens using luminescence gene” (Kabushiki Kaisha Toyota Chuo Kenkyusho, priority 1993, dated 1997):

Experiments:
[1] = system: S. typhimurium TA1535 (umu D,C SOS gene, luciferase expression); conditions: for Minimum detectable concentration, Method of Present Invention: Table 1, response two times that without test substance, 37° C., 2 hours, S9Mix where necessary; for minimum detectable concentration, fold lower than conventional colorimetric method: first embodiment (luc) vs conventional method
[2] = system: S. typhimurium TA1535/pSK1002 (umu D,C SOS gene, β-galactosidase expression); experiment: Conventional colorimetric method (umu test, β-galactosidase activity), Comparative Example 3; conditions: Table 1; response two times that without test substance; 37° C., 2 hours; S9Mix where necessary
[3] = system: S. typhimurium TA1535/pSK1002 (umu D,C SOS gene, β-galactosidase expression); experiment: Conventional colorimetric method (umu test, β-galactosidase activity), Comparative Example 4; conditions: Table 2; response two times that without test substance; 37° C., 2 hours; S9 Mix where necessary
[4] = system: S. typhimurium TA1535 (umu D,C SOS gene, luminescence genes of pUCD620); experiment: Luminescence assay with genes for luciferase and the enzyme producing its substrate, Example 6; conditions: Table 2; response two times that without test substance; 30° C., 2 hours; S9 Mix where necessary
in vitro = conditions: s. typhimurium ta1535
[5] = Conventional colorimetric method (umu test, β-galactosidase activity), Comparative Example 3; conditions: s. typhimurium ta1535/psk1002

SMILES | Minimum detectable concentration, Method of Present Invention [1] [µg/mL] | minimum detectable concentration, fold lower than conventional colorimetric method [1] | Minimum detectable concentration, Conventional Method [2] [µg/mL] | Minimum detectable concentration, Conventional Method [3] [µg/mL] | Minimum detectable concentration, Method of Present Invention [4] [µg/mL] | dynamic range (highest value of the ratio), expansion relative to conventional colorimetric method ([1]; first embodiment vs conventional colorimetric method) | maximal fold induction (in vitro) | maximal fold induction [5]
O=[N+]([O-])c1ccc2ccc3cccc4ccc1c2c34 [1-NP, 1-nitropyrene] | 0.03 | about 10 times | 0.3 | 0.3 | 0.05 |  |  | 
Nc1ccc2cc3ccccc3cc2c1 [2-AA, 2-aminoanthracene] | 0.04 |  | 0.1 | 0.1 | 0.02 |  |  | 
O=[N+]([O-])c1cc[n+]([O-])c2ccccc12 [4NQO, 4-nitroquinoline 1-oxide] | 0.01 |  | 0.04 | 0.04 | 0.008 |  |  | 
NC(=O)C(=Cc1ccc([N+](=O)[O-])o1)c1ccco1 [AF-2, 2-(2-furyl)-3-(5-nitro-2-furyl)-acrylamide] | 0.0005 |  | 0.003 | 0.003 | 0.0005 | about 3 times | ~15 | ~5
c1ccc2c(c1)cc1ccc3cccc4ccc2c1c34 [Bap, benzo[a]pyrene] | 0.1 | about 10 times | 1 | 1 | 0.04 |  |  | 
